Source: PubChem BioAssay AID2060617 (Molecular Pharmacology Branch, DTP, NCI, 2025)

Tested on: 485368-065-R4-J2-PDC spheroids with HUVEC/MSC, viability
Assay: Anticancer human tumor 485368-065-R4-J2-PDC patient-derived pancreatic carcinoma cell line growth inhibition [CLK]
Settings: for IC50: curve of first compound; for viability, T/C: stronger effect = lower value
Description: A high-throughput screen of multi-cell type tumor spheroids was designed to identify active combinations of […] and targeted small molecules. Complex spheroids include a stromal component modeled by human endothelial cells (HUVEC) and fibroblasts modeled by human mesenchymal stem cells (MSCs). The concentration ranges selected for each drug and investigational agent were based upon clinically achievable concentrations if the clinical Cmax of the agent was known.
Compounds. The drugs and investigational agents: cirtuvivint (SM08502; NSC835563), CC-671 (NSC850746), vemurafenib (NSC761431), tapotoclax (NSC804041), sotorasib (NSC818433), adagrasib (NSC831453), MRTX-1133 (NSC836407), BAY2416964 (NSC825713), copanlisib (NSC816437), inavolisib (NSC800729), abemaciclib (NSC768073), osimertinib (NSC779217), entinostat (NSC756642), eltanexor (KPT-8602, NSC794443), venetoclax (NSC766270), ceralasertib (NSC777638), bortezomib (NSC756655), olaparib (NSC753686), talazoparib (NSC767125), alisertib (NSC759677), peposertib (NSC802822), gemcitabine (NSC613327), 5-fluorouracil (NSC19893), SN-38 (NSC673596), oxaliplatin (NSC266046), paclitaxel (NSC125973), and doxorubicin (NSC123127), were obtained from the National Cancer Institute (NCI) Developmental Therapeutics Program Chemical Repository. The FDA-approved anticancer drug set is available from the Developmental Therapeutics Program at https://dtp.cancer.gov/organization/dscb/obtaining/available plates.htm. […] The stock solutions were prepared in dimethyl sulfoxide (DMSO, Sigma-Aldrich, St. Louis, MO, cat. D2650), except for the platinum complexes which were prepared in saline (Quality Biological, Gaithersburg, MD, cat. 114-055-101), at 800-fold the tested concentration and stored at -70 degrees C prior to their use. All drugs and investigational agents were tested over a range starting from a high concentration at or near the clinical Cmax and decreasing in half-log increments. If the clinical Cmax for an agent had not been determined, the highest concentration tested was 10 microM.
Cell Culture. All cells were maintained in an incubator at 37 degrees C and 5% CO2 with 95% humidity. The PDC lines were cultured according to standard operating procedures established by the NCI PDMR. Briefly, all PDCs were thawed and cultured in Matrigel-coated flasks prepared with a working solution of 1X Ham's F-12 nutrient mix, without supplementation (Invitrogen, Waltham, MA, cat. 11765054), 100 U/mL penicillin-streptomycin (Invitrogen, cat. 15140122), and 2.5% Matrigel (Corning Inc., Corning, NY, cat. 354248) for the first three passages. The 947758-054-R-J2-PDC line was cultured in 6B/Colon 1A media, which includes advanced DMEM/F-12 (Thermo Fisher Scientific, cat. 12634028), 10 mM HEPES (Thermo Fisher Scientific, cat. 15630080), 1X GlutaMAX supplement (Thermo Fisher Scientific, cat. 35050061), 0.1 mg/mL primocin (InvivoGen, cat. ant-pm-2), 10% defined fetal bovine serum, heat inactivated (HyClone Laboratories Inc., cat. SH30070.03HI), 1.25 mM N-Acetyl-L-cysteine (Sigma-Aldrich, cat. A9165), 10 mM nicotinamide (Sigma-Aldrich, cat. N0636), 1X B-27 supplement (Thermo Fisher Scientific, cat. 17504044), 1X N-2 supplement (Thermo Fisher Scientific, cat. 17502048), and 10 microM Y-27632 dihydrochloride (Tocris Bioscience, cat. 1254). The 876862-298-R-J1-PDC was cultured in 6E media, which includes all 6B/Colon 1A media components plus 50% L-WRN conditioned media (ATCC, cat. CRL-3276), 50 ng/mL recombinant human EGF recombinant protein (hEGF; Thermo Fisher Scientific, cat. PHG0311), 10 ng/mL recombinant human fibroblast growth factor 10 (hGFG-10; PeproTech, cat. 100-26), 1 ng/mL recombinant human fibroblast growth factor 2 (hFGF-2; PeproTech, cat. 100-18B), and 1 µM prostaglandin E2 (PGE2; Tocris, cat. 2296). The 227483-062-R1-J1-PDC line was cultured in Panc media, containing all 6E components except hFGF-2, with the addition of 500 nM SB-431542 (Selleckchem, cat. S1067) and 10 nM gastrin (Tocris, cat. 3006). […]

[1] = second compound 0.0316 µM, first compound 0.0316 µM
[2] = second compound 0.0316 µM, first compound 0.1 µM
[3] = second compound 0.0316 µM, first compound 0.316 µM
[4] = second compound 0.0316 µM, first compound 1 µM
[5] = second compound 0.0316 µM, first compound 3.16 µM
[6] = second compound 0.0316 µM, first compound 10 µM
[7] = second compound 0.1 µM, first compound 0.0316 µM
[8] = second compound 0.1 µM, first compound 0.1 µM
[9] = second compound 0.1 µM, first compound 0.316 µM
[10] = second compound 0.1 µM, first compound 1 µM
[11] = second compound 0.1 µM, first compound 3.16 µM
[12] = second compound 0.1 µM, first compound 10 µM
[13] = second compound 0.316 µM, first compound 0.0316 µM
[14] = second compound 0.316 µM, first compound 0.1 µM
[15] = second compound 0.316 µM, first compound 0.316 µM
[16] = second compound 0.316 µM, first compound 1 µM
[17] = second compound 0.316 µM, first compound 3.16 µM
[18] = second compound 0.316 µM, first compound 10 µM
[19] = second compound 1 µM, first compound 0.0316 µM
[20] = second compound 1 µM, first compound 0.1 µM
[21] = second compound 1 µM, first compound 0.316 µM
[22] = second compound 1 µM, first compound 1 µM
[23] = second compound 1 µM, first compound 3.16 µM
[24] = second compound 1 µM, first compound 10 µM
[25] = second compound 3.16 µM, first compound 0.0316 µM
[26] = second compound 3.16 µM, first compound 0.1 µM
[27] = second compound 3.16 µM, first compound 0.316 µM
[28] = second compound 3.16 µM, first compound 1 µM
[29] = second compound 3.16 µM, first compound 3.16 µM
[30] = second compound 3.16 µM, first compound 10 µM
[31] = second compound 10 µM, first compound 0.0316 µM
[32] = second compound 10 µM, first compound 0.1 µM
[33] = second compound 10 µM, first compound 0.316 µM
[34] = second compound 10 µM, first compound 1 µM
[35] = second compound 10 µM, first compound 3.16 µM
[36] = second compound 10 µM, first compound 10 µM
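Note: spheroids exposed to compounds for seven days.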
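Throughout, for viability, T/C: 100% = DMSO vehicle control wells.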

SMILES: Nc1ccccc1NC(=O)c1ccc(CNC(=O)OCc2cccnc2)cc1 + CNC(=O)c1ccc(Nc2nc(OC3CCCC3)c3c(-c4ccc5nc(C)oc5c4)c[nH]c3n2)c(OC)c1
- IC50 (second compound 0.0316 µM): 6.71 µM
- IC50 (second compound 0.1 µM): 6.55 µM
- IC50 (second compound 0.316 µM): 6.73 µM
- IC50 (second compound 1 µM): 5.72 µM
- IC50 (second compound 3.16 µM): 5.1 µM
- IC50 (second compound 10 µM): 5.51 µM
- viability, T/C [1]: 89.6%
- viability, T/C [2]: 96.7%
- viability, T/C [3]: 94.7%
- viability, T/C [4]: 90.3%
- viability, T/C [5]: 82.8%
- viability, T/C [6]: 32.4%
- viability, T/C [7]: 92.1%
- viability, T/C [8]: 93.8%
- viability, T/C [9]: 102%
- viability, T/C [10]: 87.3%
- viability, T/C [11]: 81.7%
- viability, T/C [12]: 31.9%
- viability, T/C [13]: 74.4%
- viability, T/C [14]: 79.8%
- viability, T/C [15]: 83.9%
- viability, T/C [16]: 89.7%
- viability, T/C [17]: 83.2%
- viability, T/C [18]: 33.1%
- viability, T/C [19]: 86%
- viability, T/C [20]: 80.8%
- viability, T/C [21]: 71.3%
- viability, T/C [22]: 77.9%
- viability, T/C [23]: 70.6%
- viability, T/C [24]: 30.6%
- viability, T/C [25]: 71.5%
- viability, T/C [26]: 74.8%
- viability, T/C [27]: 72.2%
- viability, T/C [28]: 65.9%
- viability, T/C [29]: 65.6%
- viability, T/C [30]: 29.3%
- viability, T/C [31]: 67.6%
- viability, T/C [32]: 73.9%
- viability, T/C [33]: 67.8%
- viability, T/C [34]: 73.6%
- viability, T/C [35]: 69.8%
- viability, T/C [36]: 28.6%

SMILES: C=C(F)C(=O)N1CCN(c2nc(OCC3CCCN3C)nc3c2CCN(c2cccc4cccc(Cl)c24)C3)CC1CC#N (stereo unspecified) + CN1CCN(c2cc(C(=O)Nc3cc4cc(-c5cnn(C)c5)ccc4cn3)ccn2)CC1
- IC50 (second compound 0.0316 µM): > 10 µM
- IC50 (second compound 0.1 µM): > 10 µM
- IC50 (second compound 0.316 µM): > 10 µM
- IC50 (second compound 1 µM): < 0.0316 µM
- IC50 (second compound 3.16 µM): < 0.0316 µM
- IC50 (second compound 10 µM): < 0.0316 µM
- viability, T/C [1]: 114%
- viability, T/C [2]: 116%
- viability, T/C [3]: 108%
- viability, T/C [4]: 114%
- viability, T/C [5]: 105%
- viability, T/C [6]: 110%
- viability, T/C [7]: 109%
- viability, T/C [8]: 105%
- viability, T/C [9]: 106%
- viability, T/C [10]: 109%
- viability, T/C [11]: 105%
- viability, T/C [12]: 95.3%
- viability, T/C [13]: 89.7%
- viability, T/C [14]: 85.6%
- viability, T/C [15]: 89.4%
- viability, T/C [16]: 77.8%
- viability, T/C [17]: 77.4%
- viability, T/C [18]: 57.4%
- viability, T/C [19]: 1.02%
- viability, T/C [20]: 1.73%
- viability, T/C [21]: 2.07%
- viability, T/C [22]: 1.58%
- viability, T/C [23]: 1.92%
- viability, T/C [24]: 3.55%
- viability, T/C [25]: 1.58%
- viability, T/C [26]: 1.31%
- viability, T/C [27]: 1.13%
- viability, T/C [28]: 2.84%
- viability, T/C [29]: 1.64%
- viability, T/C [30]: 2%
- viability, T/C [31]: 1.69%
- viability, T/C [32]: 2.28%
- viability, T/C [33]: 1.56%
- viability, T/C [34]: 2.01%
- viability, T/C [35]: 3.1%
- viability, T/C [36]: 1.56%

SMILES: CC1COCCN1c1cc(C2(S(C)(=N)=O)CC2)nc(-c2ccnc3[nH]ccc23)n1 (stereo unspecified) + CN1CCN(c2cc(C(=O)Nc3cc4cc(-c5cnn(C)c5)ccc4cn3)ccn2)CC1
- IC50 (second compound 0.0316 µM): > 10 µM
- IC50 (second compound 0.1 µM): > 10 µM
- IC50 (second compound 0.316 µM): 6.83 µM
- IC50 (second compound 1 µM): < 0.0316 µM
- IC50 (second compound 3.16 µM): < 0.0316 µM
- IC50 (second compound 10 µM): < 0.0316 µM
- viability, T/C [1]: 102%
- viability, T/C [2]: 111%
- viability, T/C [3]: 102%
- viability, T/C [4]: 119%
- viability, T/C [5]: 118%
- viability, T/C [6]: 107%
- viability, T/C [7]: 107%
- viability, T/C [8]: 119%
- viability, T/C [9]: 113%
- viability, T/C [10]: 120%
- viability, T/C [11]: 103%
- viability, T/C [12]: 90.9%
- viability, T/C [13]: 88.5%
- viability, T/C [14]: 88.3%
- viability, T/C [15]: 74.8%
- viability, T/C [16]: 75.2%
- viability, T/C [17]: 60.3%
- viability, T/C [18]: 44.4%
- viability, T/C [19]: 1%
- viability, T/C [20]: 1.87%
- viability, T/C [21]: 1.95%
- viability, T/C [22]: 1.83%
- viability, T/C [23]: 1.71%
- viability, T/C [24]: 2.07%
- viability, T/C [25]: 1.39%
- viability, T/C [26]: 2.33%
- viability, T/C [27]: 2.68%
- viability, T/C [28]: 2.72%
- viability, T/C [29]: 3.59%
- viability, T/C [30]: 1.89%
- viability, T/C [31]: 1.49%
- viability, T/C [32]: 2.62%
- viability, T/C [33]: 2.44%
- viability, T/C [34]: 1.98%
- viability, T/C [35]: 1.76%
- viability, T/C [36]: 3.15%
